Patent US20150368203A1, “PHARMACEUTICAL FORMULATIONS CONTAINING IPIDACRINE AND THEIR USE FOR THE TREATMENT OF DISORDERS OF POTENCY AND DISORDERS OF OTHER FORMS OF SEXUAL ACTIVITY” (Limited Liability Company "KONSORTSIUM-PIK", priority 2012, published 2015)

Assays:
patients with dementia = details: patients in the treatment of Alzheimer's disease; cited from earlier work
[1] = tested on: ovariectomized, hypoestrogenic rats; details: introduction into the lateral ventricle in the brain; cited from earlier work
[2] = tested on: male rats exposed to chronic stress (electrical current); assay: Sexual activity of male rats in the model of chronic stress caused by electrical current exposure; assay type: in vivo, rat
Description: The most appropriate model (in terms of the ease of implementation) is the model of psychogenic sexual dysfunction caused by exposure to physical factors (electrical current) in rats.
The pre-experiment with the animals was performed similar to that described in Example 2.
The two groups of the animals similar in the sexual activity level were formed: control (administration of distilled water), pharmaceutical formulation (on ipidacrine basis at a dose of 1.7 mg/kg). The animals of the control and experimental groups were daily exposed to current with a voltage of 30V for 30 min once a minute with an impulse with duration of 1 sec. The drug was administered 30 minutes before the stress, the testing was performed 60 min after the stress.

[3] = tested on: hypoactive male rats with spontaneously reduced sexual function; assay: Sexual activity of initially hypoactive male rats with spontaneously reduced sexual function; assay type: in vivo, rat
Text: This model is associated with the clinical conditions of anorgasmia or delayed ejaculation in humans. According to the results of the five-fold testing of the intact animals, the groups of hypoactive male rats were formed. The criterion for selection was average number of ejaculations of less than 0.5 according to the results of the five-fold testing.
To assess the effect of ipidacrine on sexual function of rats with the reduced sexual activity, the groups of the animals with initially low manifestations of copulatory and ejaculatory components of behavior were formed. This model reflects the clinical conditions of anorgasmia and delayed ejaculation. The effect of the drug on the integral indicator of the sexual function (number of ejaculations) at a dose of 0.85 to 5.1 mg/kg when administered daily is shown in FIG. 3

hemigonadectomized rats = assay: Sexual activity of hemigonadectomized rats (hypogonadal state model); assay type: in vivo, rat
Text: Evaluation of the effects of ipidacrine pharmaceutical formulation in rats with the reduced sexual activity caused by hemigonadectomy. The hemigonadectomy is similar to the pathological processes observed in the clinical picture and associated with the decrease in hormone production by the sex glands. The model of hypogonadal state in rats induced by the hemigonadectomy corresponds to the pathological processes observed in the clinical picture and associated with the decreased hormone production of the sex glands.
The study of the ipidacrine pharmacological activity was conducted in albino male rats. The following six groups of animals were formed: 1—intact, 2—treated with sildenafil, 3—galantamine, 4—ipidacrine, 5—gonadectomized, 6—control.
30 days before the start of the main study, the experiment was performed (3 times a week for 2 weeks), namely introduction of a receptive female to the male rat. The number of ejaculations was recorded. Those animals whose level of sexual activity was characterized by stable performance of 1-2 ejaculations during the period of the test were selected.
The selected male rats underwent the hemigonadectomy (at the right) performed under ether anesthesia. Then, during 7 and 14 days prior to the course administration of the drugs, daily testing of sexual activity of the hemigonadectomized animals was carried out. The latency period and the number of mounts, intromissions and ejaculations in different groups of the animals were considered.

Structure (SMILES): COc1cc2c(cc1OC)C(=O)C(CC1CCN(Cc3ccccc3)CC1)C2 (stereo not shown) [donepezil]
- sexual behavior (side effect) (patients with dementia): increase in the sexual behavior

Structure (SMILES): CNC(=O)Oc1ccc2c(c1)[C@]1(C)CCN(C)[C@@H]1N2C [eserine]
- lordosis [1]: increases the lordosis

Structure (SMILES): Nc1c2c(nc3c1CCC3)CCCC2 [ipidacrine, Ipidacrine]
- formation of sexual dysfunction ([2]; 1.7 mg/kg once a day prior to the stress): slower formation of sexual dysfunction
- parameters of activity in the initial period ([2]; 1.7 mg/kg, 1 to 3 days, versus group nonsusceptible to stress): comparable to the parameters in the group nonsusceptible to the stress
- frequency of ejaculations ([2]; 1.7 mg/kg, 3rd to 10th day of the experiment): 60-100%
- rate of renewal of activity after the first ejaculation ([2]; 1.7 mg/kg, 3rd to 10th day, versus stressed animals without treatment): higher rate of renewal of activity after the first ejaculation
- latency period of intromissions (7th day) and of intromissions and mounts (10th day) versus group without treatment ([2]; 1.7 mg/kg, 7th and 10th day): Significant differences from the group without treatment
- number of ejaculations ([2]; 1.7 mg/kg, 10th and 14th day of the 14 day exposure to stress): 0.4-0.6
- latency period of mounts and intromissions compared to animals nonsusceptible to stress ([2]; 1.7 mg/kg, starting from the 5th day): significant increase in the latency period of mounts and intromissions
- average number of ejaculations in the group ([3]; 0.85 mg/kg daily): 0.6-0.8
- rate of occurrence of ejaculations ([3]; 0.85 mg/kg daily): 80%
- latency period of mounts and intromissions ([3]; 0.85 mg/kg daily, 7th to 14th day, versus background, trend level, similar changes in control): reduction of the latency period of mounts and intromissions
- time to renewal of sexual activity after the first ejaculation (on the average) ([3]; 0.85 mg/kg daily, some animals): 4 to 6 min
- sexual activity ([3]; 0.85 mg/kg daily, starting with the 2nd week): increase in the sexual activity
- number of animals able to ejaculate ([3]; 1.7 mg/kg): up to 80%
- effect on the sexual function ([3]; 1.7 mg/kg, 14 days): activating effect on the sexual function throughout the whole observation period
- reduction in the latency time of mounts and intromissions ([3]; 1.7 mg/kg, after the first administration): 2 to 4 fold
- ejaculatory component ([3]; 1.7 mg/kg, throughout the course of administration): increase of the ejaculatory component in comparison with the control
- efficacy in spontaneous sexual hypoactivity ([3]; 5.1 mg/kg): effective only when administered for 5 days
- manifestation of the sexual activity on subsequent administration ([3]; 5.1 mg/kg, after the first 5 days): negative effect on the manifestation of the sexual activity
- sexual activity (central motivational and ejaculatory components) ([3]; 5.1 mg/kg, first 5 days): increased the sexual activity in the animals during the first 5 days of observation
- values of indicators of sexual activity ([3]; 5.1 mg/kg, in 10, 14 days of the experiment): comparable to the control
- latency period of mounts ([3]; 5.1 mg/kg, in 3 days of observation, reduced from 33.0±5.35, p<0.05): 9.3 ± 1.93 s
- latency period of intromissions ([3]; 5.1 mg/kg, in 3 days of observation, reduced from 59.8 ±11.34, p<0.05): 10.5 ±1.76
- level of the sexual activity (fluctuations due to external stressor effects) (hemigonadectomized rats; 1.7 mg/kg once daily for 7 days, hemigonadectomized rats): eliminates fluctuations in the level of the sexual activity
- time of maximum manifestation of the increase in sexual activity (hemigonadectomized rats; 5.1 mg/kg, 2 times a day for 14 days): 3 to 5 days
- time of maximum manifestation of the increase in sexual activity (hemigonadectomized rats; 0.85 to 1.7 mg/kg, 2 times a day for 14 days): 11 to 14 days
- sexual activity of the animals (hemigonadectomized rats; 0.85 to 5.1 mg/kg, 2 times a day for 14 days, hemigonadectomized rats): dose-dependent increase in the sexual activity
